Reference: publication PMC6982861, “Synthesis, Structural Characterization, and Biological Activity of New Pyrazolo[4,3-e][1,2,4]triazine Acyclonucleosides” (Molecules, 2020)
Like-named read-outs stand apart in the source and are kept apart here.

Tests used:
[1] = […] kinase assay, P-81 phosphocellulose; format: biochemical, Homo sapiens; settings: read-out: MTT Assay ^a, IC50 (μM) / K-562
[2] = target: T1, (Homo sapiens, UniProt P00519); assay: […] kinase assay, P-81 phosphocellulose; format: biochemical
T1 construct: gene ABL1; Abl kinase

CDK2/Cyclin E = target: T2, CDK2/Cyclin E (Homo sapiens, UniProt P24941); assay: […] kinase assay, P-81 phosphocellulose; format: biochemical
T2 construct: kinase complex; with G1/S-specific cyclin-E1

[3] = read-out: MTT Assay ^a, IC50 (μM) / K-562

T1 sequence (P00519 whole entry): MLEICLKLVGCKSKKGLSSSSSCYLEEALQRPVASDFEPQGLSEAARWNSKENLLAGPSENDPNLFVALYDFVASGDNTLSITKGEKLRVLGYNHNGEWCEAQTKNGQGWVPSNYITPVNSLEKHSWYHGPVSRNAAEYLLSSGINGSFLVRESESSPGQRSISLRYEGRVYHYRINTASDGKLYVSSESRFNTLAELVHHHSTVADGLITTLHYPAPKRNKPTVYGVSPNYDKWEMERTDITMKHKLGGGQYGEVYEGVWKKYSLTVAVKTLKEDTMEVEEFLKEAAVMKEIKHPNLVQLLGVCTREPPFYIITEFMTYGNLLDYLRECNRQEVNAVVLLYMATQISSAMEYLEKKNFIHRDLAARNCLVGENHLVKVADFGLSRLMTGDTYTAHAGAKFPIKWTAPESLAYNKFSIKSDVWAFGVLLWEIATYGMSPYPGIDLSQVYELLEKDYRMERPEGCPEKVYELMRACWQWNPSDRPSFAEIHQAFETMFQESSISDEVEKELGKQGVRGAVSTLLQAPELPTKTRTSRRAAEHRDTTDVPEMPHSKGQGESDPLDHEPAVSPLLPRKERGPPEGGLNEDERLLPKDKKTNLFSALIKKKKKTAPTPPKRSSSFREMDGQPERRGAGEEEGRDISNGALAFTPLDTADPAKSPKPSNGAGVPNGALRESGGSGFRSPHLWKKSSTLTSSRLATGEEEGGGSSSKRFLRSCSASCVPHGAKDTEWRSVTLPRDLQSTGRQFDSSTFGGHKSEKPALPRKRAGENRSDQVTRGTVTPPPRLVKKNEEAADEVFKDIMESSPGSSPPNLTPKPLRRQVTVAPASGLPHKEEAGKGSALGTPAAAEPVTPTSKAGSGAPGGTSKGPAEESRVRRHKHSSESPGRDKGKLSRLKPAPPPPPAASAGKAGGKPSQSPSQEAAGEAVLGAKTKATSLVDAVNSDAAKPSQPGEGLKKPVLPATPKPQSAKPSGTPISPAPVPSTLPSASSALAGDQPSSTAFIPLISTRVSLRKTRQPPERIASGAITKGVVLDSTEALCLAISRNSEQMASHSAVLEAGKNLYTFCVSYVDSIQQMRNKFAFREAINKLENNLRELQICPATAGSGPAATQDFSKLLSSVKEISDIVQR

| IC50 [1] | IC50 [2, 3] | IC50 (CDK2/Cyclin E) | IC50 ([2]; read-out: IC50 (μM) ^a / CDK2/Cyclin E) | SMILES |
| --- | --- | --- | --- | --- |
| > 100 µM | > 100 µM |  |  | CSc1nnc2[nH]nc(C)c2n1 [compound 1, 3-methyl-5-methylsulfanyl-1H-pyrazolo[4,3-e][1,2,4]triazine] |
| > 100 µM | > 100 µM |  |  | CSc1nnc2c(n1)c(C)nn2CCO [compound 2, 1-(2-hydroxyethyl)-3-methyl–5-methylsulfanyl-1H-pyrazolo[4,3-e][1,2,4]triazine] |
| > 100 µM | > 100 µM |  |  | CSc1nnc2nn(CCO)c(C)c2n1 [compound 3, 2-(2-hydroxyethyl)-3-methyl-5-methylsulfanyl-2H-pyrazolo[4,3-e][1,2,4]triazine] |
| > 100 µM | > 100 µM |  |  | CSc1nnc2c(n1)c(C)nn2CC(O)CO (centres unmarked) [compound 4, 1-(2,3-dihydroxypropyl)-3-methyl–5-methylsulfanyl-1H-pyrazolo[4,3-e][1,2,4]triazine] |
| > 100 µM | > 100 µM |  |  | CSc1nnc2c(n1)c(C)nn2CCBr [compound 6, 1-(2-bromoethyl)-3-methyl-5-methylsulfanyl-1H-pyrazolo[4,3-e][1,2,4]triazine] |
|  |  | > 50 µM | > 50 µM | CCOC(=O)C(CCn1nc(C)c2nc(SC)nnc21)C(=O)OCC [compound 7, 1-(ethyl 2-carboethoxybutanoate-4-yl)-3-methyl-5-methylsulfanyl-1H-pyrazolo[4,3-e][1,2,4]triazine] |
| > 100 µM | > 100 µM |  |  | CSc1nnc2c(n1)c(C)nn2CCC(CO)CO [compound 8, 1-[(4-hydroxy-3-hydroxymethyl)butyl]-3-methyl-5-methylsufanyl-1H-pyrazolo[4,3-e][1,2,4]triazine] |
